Test results as given in PMC6017655, “In Silico and in Vitro-Guided Identification of Inhibitors of Alkylquinolone-Dependent Quorum Sensing in Pseudomonas aeruginosa” (Molecules : A Journal of Synthetic Chemistry and Natural …, 2018).
Entries after “also recorded” stand apart in the source; their conditions may differ. Like-named read-outs stand apart in the source and are kept apart here.

Legend:
[1] = tested on: PqsR (pqsA promoter, PA14 mCTX::PpqsA-lux); assay: Whole cell biosensor reporter assay, PA14 mCTX::PpqsA-lux; assay type: cell-based, Pseudomonas aeruginosa; conditions: for IC50: Mean ± SD, n = 3; for activity at 10 µM: PA14, read-out: PA14 Remaining Activity %; for PqsR inhibitory activity (in words), PA14: screen at 10 µM
Protocol: (§1) To determine the ability of the quinolines to inhibit PqsR functionality, the P. aeruginosa biosensor strains, PAO1-L and PA14, incorporating a chromosomal mCTX::PpqsA-lux transcriptional fusion, were used. These report on the activation of the pqsA promoter, regulated by PqsR [25]. PAO1-L and PA14 were chosen because they are genetically amenable and belong to the two major P. aeruginosa genomic groups. The quinolone compounds were incubated with the corresponding strain, and luminescence and optical density readings were recorded to monitor the effect of the quinolines on PqsR activity and bacterial growth, respectively. The compounds were screened at 10 µM concentration, and the activity was compared to a control of DMSO (0.1%) (Figure 3a). To be considered a hit, a threshold of at least 50% inhibition of the test compound, relative to the negative control had to be reached, without affecting bacterial growth. […] Concentration-response experiments were then carried out to determine the IC50 values (Figure 3b,c), which are summarised in Table 1.
(§2) Strains PA14 mCTX::PpqsA-lux and PAO1-L mCTX::PpqsA-lux were constructed using plasmid mini-CTX::PpqsA-lux, as previously described, and the assay was performed according to a published protocol. For screening, the compounds were tested at a concentration of 10 µM, which was prepared from a 10 mM stock, in DMSO.

[2] = tested on: pyocyanin production by PA14; assay: Pyocyanin production assay, PA14; assay type: cell-based, Pseudomonas aeruginosa; conditions: 3x IC50, 16 h
Protocol: (§3) Pyocyanin is a blue redox-active toxin, produced by P. aeruginosa and strongly-controlled by PqsR via the regulation of pqsE expression. Pyocyanin is essential for the pathogenicity of P. aeruginosa in lung infections. The effect of the PqsR inhibitors on pyocyanin production by PA14 and PAO1-L strains, when grown in the presence or absence of the inhibitors, was investigated (Figure 4).
(§4) The experiment was performed following a published protocol with minor modifications. P. aeruginosa strains were cultured into 5 mL fresh medium overnight. […] Cells were centrifuged at 10,000 RCF for 10 min (Allegra 64R centrifuge, Beckman Coulter, High Wycombe, UK) and the supernatant was transferred to 15 mL falcon tubes with a HSW 10 mL Soft-Ject Syringe and a […] Sartorius syringe-driven filter (Fisher Brand, Loughborough, UK). Pyocyanin pigment was extracted into chloroform by mixing 7.5 mL of supernatant with 4.5 mL of chloroform. Pyocyanin was further extracted into 1.5 mL of 0.2 M HCL, which gave a pink/red solution, and the absorbance was measured at 520 nm.

[3] = tested on: pyocyanin production by PAO1-L; assay: Pyocyanin production assay, PAO1-L; assay type: cell-based, Pseudomonas aeruginosa; conditions: 3x IC50, 16 h
Protocol: as §3, §4

PAO1-L = assay: Bacterial growth (optical density) in reporter assay, PAO1-L; assay type: cell-based, Pseudomonas aeruginosa; conditions: compound vs DMSO control
Protocol: as §1
(§5) Figure 3 Whole bacterial cell-based P. aeruginosa compound screen for both PqsR and growth inhibition (a) Activity against PA14 (green) and PAO1-L (purple) PpqsA-lux reporter strains at 10 µM test compound; (b) and (c) Dose-response curves for active compounds against PA14 (b) and PAO1-L (c); (d) and (e) growth curves for PA14 (d) and PAO1-L (e) in the presence of compound or DMSO control.

PA14 = assay: Bacterial growth (optical density) in reporter assay, PA14; assay type: cell-based, Pseudomonas aeruginosa; conditions: compound vs DMSO control
Protocol: as §1, §5

[4] = tested on: PqsR (pqsA promoter, PAO1-L mCTX::PpqsA-lux); assay: Whole cell biosensor reporter assay, PAO1-L mCTX::PpqsA-lux; assay type: cell-based, Pseudomonas aeruginosa; conditions: for IC50: Mean ± SD, n = 3; for activity at 10 µM: PAO1, read-out: PAO1-L Remaining Activity %; for PqsR inhibitory activity (in words), PAO1-L: screen at 10 µM / dose-response
Protocol: as §1, §2

[5] = Hepatic microsomal stability, human; assay type: in vitro ADME; conditions: liver microsomes, pH 7.4, 0.5 mg/mL protein, NADPH, 37 °C; for half-life at 1 µM: read-out: Microsomal Stability Human t1/2
Protocol: Dilutions of a 1 mM test compound DMSO stock solution were prepared in buffer (typically 0.01 M phosphate buffered saline (pH 7.4) so that the final DMSO concentration was 0.1% v/v and the final test compound concentration tested was 1 µM. Following addition of protein (0.5 mg/mL final) and NADPH, the samples were pre-incubated for 10 min prior to the start of the incubation by the addition of test compound. The test compounds were then incubated (n = 2; 1 µM final concentration) at 37 °C with tissue microsomes. Aliquots were sampled at several time points and mixed with acetonitrile (containing internal standard) to terminate the reaction and precipitate the proteins. All the samples were mixed, centrifuged and the supernatants analysed by UPLC-MS/MS. The intrinsic clearance (Clint) and half-life (t 1/2) values were determined from the slope of the parent depletion curve. Control compounds for low, moderate and high intrinsic clearance, respectively, for both human and rat microsomes, were included.

Plasma stability, rat = assay type: in vitro ADME; conditions: 37 °C, up to 2 h, read-out: Plasma Stability Rat t1/2
Protocol: Dilutions of a 10 mM test compound DMSO stock solution were prepared so that the final DMSO concentration was 1% v/v and the final test compound concentration tested was 1 µM. Following the addition of the test compound to plasma, the samples were pre-incubated for 10 min prior to the start of the incubation by the addition of the test compound. The test compound was incubated (n = 2; 1 µM final concentration) at 37 °C with plasma for up to 2 h. Aliquots were sampled at several time points and mixed with acetonitrile (containing internal standard) to terminate the reaction and precipitate the proteins. All the samples were mixed, centrifuged and the supernatants analysed by UPLC-MSMS. Parent disappearance and half-life (t 1/2) values were determined from the slope of the parent depletion curve. Control compounds (imidapril, enalapril, tenofovir and/or propantheline), were respectively included.

[6] = Pseudomonas aeruginosa, PA14, read-out: IC50 PA14, PpqsA-lux reporter
[7] = read-out: IC50 PA14, PpqsA-lux reporter
[8] = Pseudomonas aeruginosa, PAO1, read-out: IC50 PAO1-L, PpqsA-lux reporter
[9] = strain not singled out in the sentence

Structure (SMILES)	IC50 [1, 6] [nM]	activity at 10 µM ([1]; Pseudomonas aeruginosa) [%]	IC50 [1, 7] [nM]	PqsR inhibitory activity (in words), PA14 [1]	Effect on pyocyanin production (in words), PA14 [2]	Effect on pyocyanin production (in words), PAO1-L [3]	Effect on bacterial growth, PAO1-L (PAO1-L)	Effect on bacterial growth, PA14 (PA14)	IC50 [4, 8] [nM]	activity at 10 µM ([4]; Pseudomonas aeruginosa) [%]	PqsR inhibitory activity (in words), PAO1-L [4]	microsomal CLint at 1 µM [5] [µL/min/mg]	half-life at 1 µM [5] [min]	half-life at 1 µM (Plasma stability, rat) [min]	Reduction of pyocyanin production, PA14 [2, 9]	Reduction of pyocyanin production, PAO1-L [3, 9]	IC50 ([4]; read-out: IC50 PAO1-L, PpqsA-lux reporter) [nM]
O=CN1N=C(c2ccccc2)CC1c1cccc(Nc2ccnc3cc(Cl)ccc23)c1 (stereo not shown) [Ia]	2200	18.7 ± 1.98	2300 ± 510	strong PqsR inhibitory activity	strongest effect	strongest effect	without interfering with bacterial growth	without interfering with bacterial growth	12400 ± 1790	25.8 ± 1.17	strong PqsR inhibitory activity; also recorded: modest activity	60.3	23.3	> 240			
CC(=O)N1N=C(c2ccccc2)CC1c1cccc(Nc2ccnc3cc(Cl)ccc23)c1 (stereo not shown) [IIa]	3700	19.7 ± 1.9	4000 ± 1620	strong PqsR inhibitory activity	weakest effect	weakest effect	without interfering with bacterial growth	without interfering with bacterial growth	1500	31.6 ± 6.6	strong PqsR inhibitory activity	73	19	> 240	over 25%	over 25%	1600 ± 290
